Drawing on patent US20260347346A1, “SUBSTITUTED 6-(PYRIMIDIN-4-YL)QUINOLINE COMPOUNDS AS CYCLIN DEPENDENT KINASE INHIBITORS” (BeOne Medicines I GmbH, priority 2022, published 2026), this text covers IC50 for seven compounds.

Experiment [1] concerns the target CDK4/Cyclin D1 (Homo sapiens, UniProt P11802). Kind of experiment: inhibition of CDK4/Cyclin D1 kinase, TR-FRET. Type of experiment: biochemical. To be noted: CDK4/Cyclin D1, 1 mM ATP, 0.15 μM Rb (Ser780)-biotin substrate, pH 7.0, 60 min preincubation, 120 min reaction, room temperature; read-out: CDK4D1 IC50. Here is the method: (§1) Compounds disclosed herein were tested for inhibition of CDK4/Cyclin D1 or CDK6/Cyclin D3 kinase in an assay based on the time-resolved fluorescence-resonance energy transfer (TR-FRET) methodology. The assay was carried out in 384-well low volume black plates in a reaction mixture containing CDK4/Cyclin D1 or CDK6/Cyclin D3, 1 mM ATP, 0.15 μM Rb (Ser780)-biotin substrate and 0-10 μM compound in buffer containing 50 mM HEPES pH7.0, 0.02% NaN3, 0.01% BSA, 0.1 mM Orthovanadate, 50 mM MgCl2, 1 mM DTT and 0.005% Tween-20. The kinase was incubated with compound for 60 minutes at room temperature and the reaction was initiated by the addition of ATP and Rb (Ser780)-biotin substrate. After reaction at room temperature for 120 minutes, an equal volume of stop/detection solution was added according to the manufacture's instruction (Cisbio Bioassays). The stop/detection solution contained Streptavidin-XL665 and Anti-pRb (Ser780) mAb-Eu Cryptate in Detection buffer (Cisbio Bioassays). Plates were incubated at room temperature for 60 minutes, and the TR-FRET signals (ex337 nm, em665 nm/620 nm) were recorded on a PHERAstar FSX plate reader (BMG Labtech). The inhibition percentage of CDK4/Cyclin D1 or CDK6/Cyclin D3 kinase activity in presence of increasing concentrations of compounds was calculated based on the ratio of fluorescence at 665 nm to that at 620 nm. The IC50 for each compound was derived from fitting the data to the four-parameter logistic equation by Dotmatics.
For orientation: Time-resolved FRET reads energy transfer from a long-lived donor to a nearby acceptor.

The target in experiment [2] is CDK6/Cyclin D3 (Homo sapiens, UniProt Q00534). Kind of experiment: inhibition of CDK6/Cyclin D3 kinase, TR-FRET. The format is biochemical. To be noted: CDK6/Cyclin D3, 1 mM ATP, 0.15 μM Rb (Ser780)-biotin substrate, pH 7.0, 60 min preincubation, 120 min reaction, room temperature; read-out: CDK6D3 IC50. Here is the method: as §1

As usually defined, the IC50 is the concentration that gives 50% inhibition.

Sequence of CDK4/Cyclin D1 (P11802 whole entry): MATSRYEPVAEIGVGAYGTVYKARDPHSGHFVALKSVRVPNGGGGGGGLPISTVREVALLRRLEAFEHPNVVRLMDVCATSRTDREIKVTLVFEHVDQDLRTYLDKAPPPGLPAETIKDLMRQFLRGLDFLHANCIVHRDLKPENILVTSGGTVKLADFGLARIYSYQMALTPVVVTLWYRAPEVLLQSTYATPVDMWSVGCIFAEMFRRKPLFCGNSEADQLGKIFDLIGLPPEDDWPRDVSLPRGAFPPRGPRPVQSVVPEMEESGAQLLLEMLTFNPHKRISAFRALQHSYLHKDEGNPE
Sequence of CDK4/Cyclin D1 (P24385 whole entry partner): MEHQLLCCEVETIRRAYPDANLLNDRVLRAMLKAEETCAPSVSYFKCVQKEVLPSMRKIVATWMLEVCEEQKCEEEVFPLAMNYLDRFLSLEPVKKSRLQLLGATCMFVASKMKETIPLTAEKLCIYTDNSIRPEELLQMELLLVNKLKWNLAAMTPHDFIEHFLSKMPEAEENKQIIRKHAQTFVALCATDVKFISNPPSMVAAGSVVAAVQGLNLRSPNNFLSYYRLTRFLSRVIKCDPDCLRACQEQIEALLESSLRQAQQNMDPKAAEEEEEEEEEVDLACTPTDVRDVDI
Sequence of CDK6/Cyclin D3 (Q00534 whole entry): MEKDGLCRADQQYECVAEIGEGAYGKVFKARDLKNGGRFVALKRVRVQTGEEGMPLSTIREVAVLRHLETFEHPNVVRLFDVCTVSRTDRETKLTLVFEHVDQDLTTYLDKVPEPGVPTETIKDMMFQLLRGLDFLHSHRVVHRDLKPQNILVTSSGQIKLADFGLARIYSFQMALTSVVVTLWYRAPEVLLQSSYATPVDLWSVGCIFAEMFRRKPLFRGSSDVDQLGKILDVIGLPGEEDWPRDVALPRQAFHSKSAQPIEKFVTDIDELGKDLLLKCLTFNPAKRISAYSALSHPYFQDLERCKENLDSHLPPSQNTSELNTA
Sequence of CDK6/Cyclin D3 (P30281 whole entry partner): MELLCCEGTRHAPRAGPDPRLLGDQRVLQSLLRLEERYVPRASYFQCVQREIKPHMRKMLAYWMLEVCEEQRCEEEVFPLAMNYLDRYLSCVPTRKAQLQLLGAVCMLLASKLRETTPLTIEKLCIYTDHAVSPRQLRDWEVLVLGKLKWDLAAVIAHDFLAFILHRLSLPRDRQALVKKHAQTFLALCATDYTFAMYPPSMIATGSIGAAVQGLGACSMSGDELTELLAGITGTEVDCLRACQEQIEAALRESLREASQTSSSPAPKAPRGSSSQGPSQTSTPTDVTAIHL

Regarding `COC(=O)c1ccnc2c(F)cc(-c3nc(N[C@@H]4CCOC[C@H]4O)ncc3F)cc12` [Example A1, methyl 8-fluoro-6-(5-fluoro-2-(((3S,4R)-3-hydroxytetrahydro-2H-pyran-4-yl)amino)pyrimidin-4-yl) quinoline-4-carboxylate], the IC50 came to 122 nM in experiment [1] and 688 nM in experiment [2].
`CC(C)(O)c1ccnc2c(F)cc(-c3nc(N[C@@H]4CCOC[C@H]4O)ncc3F)cc12` [Example A2, (3S,4R)-4-((5-fluoro-4-(8-fluoro-4-(2-hydroxypropan-2-yl)quinolin-6-yl)pyrimidin-2-yl)amino)tetrahydro-2H-pyran-3-ol]: the IC50 is 12 nM in experiment [1] and 84 nM in experiment [2].
With `Cc1cc(C(C)(C)O)c2cc(-c3nc(N[C@@H]4CCOC[C@H]4O)ncc3F)cc(F)c2n1` [Example A3, (3S,4R)-4-((5-fluoro-4-(8-fluoro-4-(2-hydroxypropan-2-yl)-2-methylquinolin-6-yl)pyrimidin-2-yl)amino)tetrahydro-2H-pyran-3-ol], the IC50 in experiment [1] turned out to be 33 nM; in experiment [2], 249 nM.
As to `CC(C)(C)OC(=O)N1CCC(Nc2ncc(F)c(-c3cc(F)c4nccc(C(C)(C)O)c4c3)n2)CC1` [Example A4, tert-butyl 4-((5-fluoro-4-(8-fluoro-4-(2-hydroxypropan-2-yl)quinolin-6-yl)pyrimidin-2-yl)amino) piperidine-1-carboxylate], the IC50 is 171 nM in experiment [1] and 1700 nM in experiment [2].
For `CC(C)(O)c1ccnc2c(F)cc(-c3nc(NC4CCNCC4)ncc3F)cc12` [Example A5, 2-(8-fluoro-6-(5-fluoro-2-(piperidin-4-ylamino)pyrimidin-4-yl)quinolin-4-yl) propan-2-ol], the IC50 in experiment [1] stood at 83 nM; in experiment [2] it was 220 nM.
`C[C@H](N)c1ccnc2c(F)cc(-c3nc(N[C@@H]4CCOC[C@H]4O)ncc3F)cc12` [Example A6, (3S,4R)-4-((4-(4-((S)-1-aminoethyl)-8-fluoroquinolin-6-yl)-5-fluoropyrimidin-2-yl)amino)tetrahydro-2H-pyran-3-ol]: the IC50 in experiment [1] amounted to 32 nM; in experiment [2] it was 760 nM.
The like results for `C[C@@H](N)c1ccnc2c(F)cc(-c3nc(N[C@@H]4CCOC[C@H]4O)ncc3F)cc12` [Example A7, (3S,4R)-4-((4-(4-((R)-1-aminoethyl)-8-fluoroquinolin-6-yl)-5-fluoropyrimidin-2-yl)amino)tetrahydro-2H-pyran-3-ol] were, in that order, 97 nM and 2380 nM.
